Measured values taken from the supplement of paper PMC10307832.

Columns and labels:
Assay in all cases: relative viability (nuclei count vs DMSO), 5 days (fraction); higher = more cells survive
[1] = system: NCI-H1792
Outline: (§1)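 One day after seeding in 1536-well plates, lung cancer cell lines were dosed by pin tool. Dosing was either single-drug or a fixed anchor-drug dose plus five library-drug doses (not always all listed) in √10 steps. After 5 days, nuclei were stained in one fix-and-stain step and counted on 4× images, and relative viability is the nuclei count of treated wells over that of vehicle wells, given as the median of duplicate plates.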

[2] = system: NCI-H1915
Outline: as §1

[3] = system: NCI-H2085
Outline: as §1

[4] = system: NCI-H2170
Outline: as §1

[5] = system: NCI-H1944
Outline: as §1

[6] = system: HCC-366
Outline: as §1

[7] = system: LC-2-ad
Outline: as §1

[8] = system: A-427
Outline: as §1

[9] = system: HCC-78
Outline: as §1

[10] = system: SK-LU-1
Outline: as §1

[11] = system: EPLC-272H
Outline: as §1

[12] = system: NCI-H460
Outline: as §1

[13] = system: COR-L 105
Outline: as §1

[14] = system: LU99A
Outline: as §1

[15] = system: NCI-H1793
Outline: as §1

[16] = system: SW 900
Outline: as §1

[17] = system: UMC-11
Outline: as §1

[18] = system: HOP-62
Outline: as §1

[19] = system: NCI-H358
Outline: as §1

[20] = system: NCI-H2009
Outline: as §1

[21] = system: LXF-289
Outline: as §1

[22] = system: NCI-H1666
Outline: as §1

COc1nc(C)cnc1NS(=O)(=O)c1cccnc1-c1ccc(-c2nnco2)cc1 [Zibotentan] + CC(=O)Nc1cccc(-n2c(=O)n(C3CC3)c(=O)c3c(Nc4ccc(I)cc4F)n(C)c(=O)c(C)c32)c1 [Trametinib] (partner 0.02 µM)
relative viability ([1]; first compound 0.08 µM): 0.546
relative viability ([1]; first compound 0.253 µM): 0.479
relative viability ([1]; first compound 0.8 µM): 0.389
relative viability ([1]; first compound 2.53 µM): 0.537
relative viability ([2]; first compound 0.08 µM): 0.325
relative viability ([2]; first compound 0.253 µM): 0.313
relative viability ([2]; first compound 0.8 µM): 0.347
relative viability ([2]; first compound 2.53 µM): 0.296
relative viability ([3]; first compound 0.08 µM): 0.533
relative viability ([3]; first compound 0.253 µM): 0.448
relative viability ([3]; first compound 0.8 µM): 0.541
relative viability ([3]; first compound 2.53 µM): 0.489
relative viability ([4]; first compound 0.08 µM): 0.966
relative viability ([4]; first compound 0.253 µM): 0.897
relative viability ([4]; first compound 0.8 µM): 0.903
relative viability ([4]; first compound 2.53 µM): 0.908
relative viability ([5]; first compound 0.08 µM): 0.461
relative viability ([5]; first compound 0.253 µM): 0.383
relative viability ([5]; first compound 0.8 µM): 0.399
relative viability ([5]; first compound 2.53 µM): 0.437
relative viability ([6]; first compound 0.08 µM): 0.378
relative viability ([6]; first compound 0.253 µM): 0.318
relative viability ([6]; first compound 0.8 µM): 0.361
relative viability ([6]; first compound 2.53 µM): 0.383
relative viability ([7]; first compound 0.08 µM): 0.928
relative viability ([7]; first compound 0.253 µM): 0.858
relative viability ([7]; first compound 0.8 µM): 0.913
relative viability ([7]; first compound 2.53 µM): 0.935
relative viability ([8]; first compound 0.08 µM): 0.813
relative viability ([8]; first compound 0.253 µM): 0.72
relative viability ([8]; first compound 0.8 µM): 0.845
relative viability ([8]; first compound 2.53 µM): 0.83
relative viability ([9]; first compound 0.08 µM): 0.825
relative viability ([9]; first compound 0.253 µM): 0.569
relative viability ([9]; first compound 0.8 µM): 0.665
relative viability ([9]; first compound 2.53 µM): 0.652
relative viability ([10]; first compound 0.08 µM): 0.503
relative viability ([10]; first compound 0.253 µM): 0.472
relative viability ([10]; first compound 0.8 µM): 0.451
relative viability ([10]; first compound 2.53 µM): 0.458
relative viability ([11]; first compound 0.08 µM): 0.287
relative viability ([11]; first compound 0.253 µM): 0.234
relative viability ([11]; first compound 0.8 µM): 0.31
relative viability ([11]; first compound 2.53 µM): 0.312
relative viability ([12]; first compound 0.08 µM): 0.159
relative viability ([12]; first compound 0.253 µM): 0.0304
relative viability ([12]; first compound 0.8 µM): 0.0981
relative viability ([12]; first compound 2.53 µM): 0.196
relative viability ([13]; first compound 0.08 µM): 0.403
relative viability ([13]; first compound 0.253 µM): 0.411
relative viability ([13]; first compound 0.8 µM): 0.482
relative viability ([13]; first compound 2.53 µM): 0.475
relative viability ([14]; first compound 0.08 µM): 0.598
relative viability ([14]; first compound 0.253 µM): 0.547
relative viability ([14]; first compound 0.8 µM): 0.537
relative viability ([14]; first compound 2.53 µM): 0.585
relative viability ([15]; first compound 0.08 µM): 0.42
relative viability ([15]; first compound 0.253 µM): 0.477
relative viability ([15]; first compound 0.8 µM): 0.424
relative viability ([15]; first compound 2.53 µM): 0.47
relative viability ([16]; first compound 0.08 µM): 0.893
relative viability ([16]; first compound 0.253 µM): 0.817
relative viability ([16]; first compound 0.8 µM): 0.846
relative viability ([16]; first compound 2.53 µM): 0.751
relative viability ([17]; first compound 0.08 µM): 0.617
relative viability ([17]; first compound 0.253 µM): 0.665
relative viability ([17]; first compound 0.8 µM): 0.741
relative viability ([17]; first compound 2.53 µM): 0.779
relative viability ([18]; first compound 0.08 µM): 0.429
relative viability ([18]; first compound 0.253 µM): 0.367
relative viability ([18]; first compound 0.8 µM): 0.421
relative viability ([18]; first compound 2.53 µM): 0.39
relative viability ([19]; first compound 0.08 µM): 0.15
relative viability ([19]; first compound 0.253 µM): 0.109
relative viability ([19]; first compound 2.53 µM): 0.145
relative viability ([20]; first compound 0.08 µM): 0.273
relative viability ([20]; first compound 0.253 µM): 0.258
relative viability ([20]; first compound 0.8 µM): 0.266
relative viability ([20]; first compound 2.53 µM): 0.278
relative viability ([21]; first compound 0.08 µM): 0.61
relative viability ([21]; first compound 0.253 µM): 0.622
relative viability ([21]; first compound 0.8 µM): 0.675
relative viability ([21]; first compound 2.53 µM): 0.675
relative viability ([22]; first compound 0.08 µM): 0.882
relative viability ([22]; first compound 0.253 µM): 0.779
relative viability ([22]; first compound 0.8 µM): 0.821
relative viability ([22]; first compound 2.53 µM): 0.863
